According to patent US20210198277A1, “AMINE-SUBSTITUTED ARYL OR HETEROARYL COMPOUNDS” (Epizyme, Inc., priority 2016, published 2021):

These molecules were tested against T1, human EHMT2 913-1193 (Homo sapiens, UniProt Q96KQ7) (assay: EHMT2 enzyme assay on histone peptide substrate (EHMT2 PEP)). Details: Table II; read-out: EHMT2 PEP (IC50 μM).
T1 construct: recombinant purified human EHMT2 913-1193, Viva; purchased Viva
T1 sequence (Q96KQ7 913-1193): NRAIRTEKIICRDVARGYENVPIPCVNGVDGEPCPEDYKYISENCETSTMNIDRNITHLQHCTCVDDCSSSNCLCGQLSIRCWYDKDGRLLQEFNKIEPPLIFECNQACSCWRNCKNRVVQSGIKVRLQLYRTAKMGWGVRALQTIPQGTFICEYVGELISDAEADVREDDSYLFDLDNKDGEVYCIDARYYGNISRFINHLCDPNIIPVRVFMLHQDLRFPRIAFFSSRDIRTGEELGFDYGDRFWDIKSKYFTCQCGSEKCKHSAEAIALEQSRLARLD
Format: biochemical
Summary of the method: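 Inhibition is measured as reduced tritium incorporation into a biotinylated histone peptide from ^3H-SAM. The enzyme (0.031 nM) sees compound for 30 minutes before a 60-minute room-temperature reaction, which unlabeled SAM quenches prior to streptavidin Flashplate capture.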

| SMILES | IC50 [µM] |
| --- | --- |
| COc1ccc(Nc2nccc(NCc3ccccn3)n2)cc1OCCCN1CCCC1 [Compound 23] | 0.1 to 1 |
| COCCNc1ccnc(Nc2ccc(OC)c(OCCCN3CCCC3)c2)n1 [Compound 27] | 0.1 to 1 |
| COc1ccc(Nc2nccc(NCc3nc4ccccc4[nH]3)n2)cc1OCCCN1CCCC1 [Compound 31] | 0.1 to 1 |
| COc1ccc(Nc2cccc(NC3CCC3)n2)cc1OCCCN1CCCC1 [Compound 35] | 0.1 to 1 |
| COc1ccc(Nc2nccc(NCCc3cccnc3)n2)cc1OCCCN1CCCC1 [Compound 37] | 0.1 to 1 |
| COc1ccc(Nc2nccc(NCCOc3ccccc3)n2)cc1OCCCN1CCCC1 [Compound 40] | 0.1 to 1 |
| CNC(=O)CNc1ccnc(Nc2ccc(OC)c(OCCCN3CCCC3)c2)n1 [Compound 41] | 0.1 to 1 |
| COc1ccc(Nc2nccc(NCC(C)(C)O)n2)cc1OCCCN1CCCC1 [Compound 42] | 0.1 to 1 |
| COc1ccc(Nc2nccc(NCCS(=O)(=O)N(C)C)n2)cc1OCCCN1CCCC1 [Compound 43] | 0.1 to 1 |
| COc1ccc(Nc2nccc(NCCCN(C)C(C)=O)n2)cc1OCCCN1CCCC1 [Compound 44] | 0.1 to 1 |
| COc1ccc(Nc2nccc(NCC3(O)CCCCC3)n2)cc1OCCCN1CCCC1 [Compound 45] | 0.1 to 1 |
| COc1ccc(Nc2nccc(NCC3CCN(C(C)=O)CC3)n2)cc1COCCN1CCCC1 [Compound 48] | 0.1 to 1 |
| COc1ccc(Nc2nccc(NCC3(O)CCOCC3)n2)cc1OCCCN1CCCC1 [Compound 49] | 0.1 to 1 |
| COc1ccc(Nc2nccc(NC3CCCCC3)n2)cc1OCCCN1CCCC1 [Compound 50] | 0.1 to 1 |
| CNc1cc(Nc2ccc(OC)c(OCCCN3CCCC3)c2)ccn1 [Compound 206] | 0.1 to 1 |
| CNc1ccnc(Nc2cccc(OCCCN3CCCC3)c2)n1 [Compound 207, N^4-methyl-N^2-(3-(3-(pyrrolidin-1-yl)propoxy)phenyl)pyrimidine-2,4-diamine] | 1 to 10 |
| CNc1nc(C)cc(Nc2ccc(OC)c(OCCCN3CCCC3)c2)n1 [Compound 208] | 0.1 to 1 |
| CNc1ccnc(Nc2ccc(OC)c(OCCCN3CCCC3)c2)c1 [Compound 209, N^2-(4-methoxy-3-(3-(pyrrolidin-1-yl)propoxy)phenyl)-N^4-methylpyridine-2,4-diamine] | 0.1 to 1 |
| CNc1ccnc(Nc2ccc(OC)c(OCCCN3CCOCC3)c2)n1 [Compound 210] | 1 to 10 |
| COc1ccc(Nc2nccc(-n3nc(C)cc3C)n2)cc1OCCCN1CCCC1 [Compound 214] | > 10 |
| CNCc1cnc(Nc2ccc(OC)c(OCCCN3CCCC3)c2)nc1 [Compound 215] | > 10 |
| COc1ccc(Nc2ccnc(NCC3CCN(C(C)=O)CC3)n2)cc1OCCCN1CCCC1 [Compound 216] | 0.1 to 1 |
| COc1ccc(Nc2ccc3cnn(C)c3c2)cc1OCCCN1CCCC1 [Compound 217] | > 10 |
| COc1ccc(Nc2ccc3ncn(C)c3n2)cc1OCCCN1CCCC1 [Compound 218] | > 10 |
| COc1ccc(Nc2ncc3ncn(C)c3n2)cc1OCCCN1CCCC1 [Compound 219] | > 10 |

| SMILES | IC50 [µM] |
| --- | --- |
| COc1ccc(Nc2cccc3ncnn23)cc1OCCCN1CCCC1 [Compound 220] | > 10 |
| COc1ccc(Nc2ccc3nn(C)cc3c2)cc1OCCCN1CCCC1 [Compound 221] | > 10 |
| COc1ccc(Nc2cccc3cn(C)nc23)cc1OCCCN1CCCC1 [Compound 222] | > 10 |
| COc1ccc(Nc2ccc3ncc(C)n3n2)cc1OCCCN1CCCC1 [Compound 223] | 1 to 10 |
| COc1ccc(Nc2nccc(-c3cnn(C)c3)n2)cc1OCCCN1CCCC1 [Compound 224] | > 10 |
| COc1ccc(Nc2nccc(Nc3cccc(F)c3)n2)cc1OCCCN1CCCC1 [Compound 225] | 1 to 10 |
| COc1ccc(Nc2nccc(NCC3CCOCC3)n2)cc1NCCCN1CCCC1 [Compound 226] | 0.1 to 1 |
| COc1ccc(OCCCN2CCCC2)cc1Nc1nccc(NCC2CCOCC2)n1 [Compound 227] | > 10 |
| COc1ccc(NCCCN2CCCC2)cc1Nc1nccc(NCC2CCOCC2)n1 [Compound 228] | > 10 |
| CNc1ccnc(Nc2ccc(OC)c(OCCCN3CC[C@@H](F)C3)c2)n1 [Compound 229] | 0.1 to 1 |
| CNc1ccnc(Nc2ccc(OC)c(OCCCN3CC(F)C3)c2)n1 [Compound 230] | 1 to 10 |
| CNc1nccc(Nc2ccc(OC)c(OCCCN3CCCC3)c2)n1 [Compound 231] | 0.1 to 1 |
| CNc1cc(C)nc(Nc2ccc(F)c(OCCCN3CCCC3)c2)n1 [Compound 232] | > 10 |
| CNc1nc(Nc2ccc(OC)c(OCCCN3CCCC3)c2)ncc1C#N [Compound 233] | > 10 |
| CNc1nc(Nc2ccc(OC)c(OCCCN3CCCC3)c2)ncc1C(F)(F)F [Compound 234] | > 10 |
| CNc1ncc(C(F)(F)F)c(Nc2ccc(OC)c(OCCCN3CCCC3)c2)n1 [Compound 235] | > 10 |
| CNc1nc(Nc2ccc(OC)c(OCCCN3CCCC3)c2)nc(C)c1F [Compound 236] | 0.1 to 1 |
| CNc1ccnc(Nc2ccc(OC)c(OCCN3CCOCC3)c2)n1 [Compound 237] | 1 to 10 |
| CNc1ccnc(Nc2ccc3c(c2)N(C(=O)CCN(C)C)CC3)n1 [Compound 239] | > 10 |
| COc1ccc(Nc2nccc(CNC3CCOCC3)n2)cc1OCCCNc1ccccc1 [Compound 241] | > 10 |
| COc1ccc(Nc2cnnc(NCC3CCN(C(C)=O)CC3)c2)cc1OCCCN1CCCC1 [Compound 242] | 1 to 10 |
| COc1ccc(Nc2nccc(NCC3CCOCC3)n2)cc1OC1CC2(C1)CN(C)C2 [Compound 243] | > 10 |
| CNc1ccnc(Nc2ccc(F)c(OCCCN3CCCC3)c2)n1 [Compound 244] | > 10 |
| COc1ccc(Nc2nccc(N)n2)cc1OCCCN1CCCC1 [Compound 245] | 0.1 to 1 |
| CNc1cnnc(Nc2ccc(OC)c(OCCCN3CCCC3)c2)c1 [Compound 246] | 0.1 to 1 |

Other lines, results leading:

| IC50 [µM] | SMILES |
| --- | --- |
| 0.1 to 1 | COc1ccc(Nc2nccc(NCC3CCNCC3)n2)cc1OCCCN1CCOCC1 [Compound 16, N^2-(4-methoxy-3-(3-morpholinopropoxy)phenyl)-N^4-(piperidin-4-ylmethyl)pyrimidine-2,4-diamine] |
| 0.1 to 1 | COc1ccc(Nc2nccc(NCC3CCNCC3)n2)cc1CCNCC1CCCC1 [Compound 17, N^2-(3-(2-((cyclopentylmethyl)amino)ethyl)-4-methoxyphenyl)-N^4-(piperidin-4-ylmethyl)pyrimidine-2,4-diamine] |
| 0.1 to 1 | COc1ccc(Nc2nccc(NCC3CCN(C(C)=O)CC3)n2)cc1OCC1CCN(C)C1 (stereo not shown) [Compound 18, 1-(4-(((2-((4-methoxy-3-((1-methylpyrrolidin-3-yl)methoxy)phenyl)amino)pyrimidin-4-yl)amino)methyl)piperidin-1-yl)ethan-1-one] |
| < 0.1 | COc1ccc(Nc2nc(C)cc(NCC3CCN(C(C)=O)CC3)n2)cc1OCCCN1CCCC1 [Compound 19, 1-(4-(((2-((4-methoxy-3-(3-(pyrrolidin-1-yl)propoxy)phenyl)amino)-6-methylpyrimidin-4-yl)amino)methyl)piperidin-1-yl)ethan-1-one] |
| < 0.1 | COc1ccc(Nc2nccc(NC(C)C)n2)cc1OCCCN1CCCC1 [Compound 20] |
| < 0.1 | COc1ccc(Nc2nccc(NCc3ccccc3)n2)cc1OCCCN1CCCC1 [Compound 21] |
| < 0.1 | COCCCNc1ccnc(Nc2ccc(OC)c(OCCCN3CCCC3)c2)n1 [Compound 22] |
| < 0.1 | COc1ccc(Nc2nccc(NCc3ccncc3)n2)cc1OCCCN1CCCC1 [Compound 24] |
| < 0.1 | COc1ccc(Nc2nccc(NCc3cccnc3)n2)cc1OCCCN1CCCC1 [Compound 25] |
| < 0.1 | COc1cccc(CNc2ccnc(Nc3ccc(OC)c(OCCCN4CCCC4)c3)n2)c1 [Compound 26] |
| < 0.1 | COc1ccc(CNc2ccnc(Nc3ccc(OC)c(OCCCN4CCCC4)c3)n2)cc1 [Compound 28] |
| < 0.1 | COc1ccc(Nc2nccc(NCC3CCN(C(C)C)CC3)n2)cc1OCCCN1CCCC1 [Compound 29] |
| < 0.1 | COc1ccc(Nc2nccc(NCc3cnn(C)c3)n2)cc1OCCCN1CCCC1 [Compound 30] |
| < 0.1 | COc1ccc(Nc2nccc(NCC3CCN(C)CC3)n2)cc1OCCCN1CCCC1 [Compound 32] |
| < 0.1 | COc1ccc(Nc2nccc(NCC3CCN(c4ccccc4)CC3)n2)cc1OCCCN1CCCC1 [Compound 33] |
| < 0.1 | COc1ccc(Nc2nccc(NCC3CCCC3)n2)cc1OCCCN1CCCC1 [Compound 34] |
| < 0.1 | COc1ccccc1CNc1ccnc(Nc2ccc(OC)c(OCCCN3CCCC3)c2)n1 [Compound 36] |
| < 0.1 | COc1ccc(Nc2nccc(NCCNC(C)=O)n2)cc1OCCCN1CCCC1 [Compound 38] |
| < 0.1 | COc1ccc(Nc2nccc(NCCc3ccncc3)n2)cc1OCCCN1CCCC1 [Compound 39] |
| < 0.1 | COc1ccc(Nc2nccc(NCc3cc[nH]n3)n2)cc1OCCCN1CCCC1 [Compound 46] |
| < 0.1 | COc1ccc(Nc2nccc(NCC3CCN(C(C)=O)CC3)n2)cc1OCCCN1CCCC1 [Compound 47, 1-(4-(((2-((4-methoxy-3-(3-(pyrrolidin-1-yl)propoxy)phenyl)amino)pyrimidin-4-yl)amino)methyl)piperidin-1-yl)ethan-1-one] |
| < 0.1 | CNc1cc(C)nc(Nc2ccc(OC)c(OCCCN3CCCC3)c2)n1 [Compound 205, N^2-(4-methoxy-3-(3-(pyrrolidin-1-yl)propoxy)phenyl)-N^4,6-dimethylpyrimidine-2,4-diamine] |
| < 0.1 | CCc1cc(NC)nc(Nc2ccc(OC)c(OCCCN3CCCC3)c2)n1 [Compound 240] |
